Patent publication US20050267051A1, “Antineoplastic and anti-HIV conjugates of steroid acid and nucleosides” (priority 2003, published 2005)
≈ marks a conversion by molar mass, not a printed value. Read-outs that look alike come from different tables or passages of the source.

Tests used:
[1] = system: H9 cells; experiment: Growth inhibition (anti-growth) assay on H9 cells, trypan blue exclusion count; type: cell-based, human; conditions: for IC50: Homo sapiens, H9
Source text: Anti-growth activity on H-9 cells is summarized by IC50 data (drug concentration measured by […]g/ml needed to inhibit 50% of the cell growth), derived from dose-response curves.
(§1) Cell growth inhibitory activity against human lymphoblasts (H9 cells) for compounds (4), (5) and (6) is depicted in FIG. 1. […] Conjugate (4) was further tested against ddC resistant H9 cells (H9/ddC cells that have reduced thymidine and deoxycytidine kinase activities); HL60, HL60/araC (human promyclocytic leukemic cell lines, parental and araC resistant), H29, H29/FU (human colon adenocarcinomas, parental and FU resistant), MCF7 (human breast carcinoma) and BL5 (Burkitt lymphoma cell line). At 10 μg/ml, it produced 85-100% growth inhibition in all of these human tumor cell lines.
(§2) Growth inhibition assays were performed in triplicate by seeding 5×10^4 Cells/ml in 24-well plates (Costar). Test compounds were added, and the trypan blue-excluding cells were counted after 72 hrs of incubation at 37° C. IC50 values were calculated from growth inhibition curves as described in Agarwal, R. P., and Mian, A. Biochem. Pharmacol. 1991, 42, 905 and Agarwal, Ram P., Han, Tieran, Fernandez, Manilyn. Biochemical and Biophysical Research com in un ica lions. 1999, 262, 657.

[2] = system: HIV-1; experiment: Anti-HIV assay with T4 lymphocytes (CEM-SS cell line), XTT, protection against HIV cytopathic effects; type: cell-based; conditions: for Anti-HIV activity (in words): in vitro anti-HIV bioassays; for EC50: read-out: EC50 (50% effective concentration against HIV cytopathic effects)
Source text: (§3) The ester conjugates were subjected to standard in vitro anti-HIV bioassays [see: with T4 lymphocytes (CEM-SS cell line) according to the standard assays described, for example in Bourinbaiar AS, Lee-Huang S. Contraception 1995; 51:319-22 and http://www.iaen.org/files.cgi/7014_Bourinbaiar.pdf. Drug efficacy (EC50) was obtained by adding HIV and AZT conjugate to the cell to measure protection of the drug against HIV-induced celldeath. The cytotoxicity (IC50) data was obtained from adding only the conjugate to the cell to measure cell death caused by the agent. The therapeutic index (TI) is the ratio IC50/EC50. […] These two active agents appear to have less cytotoxicity and weaker anti-HIV potency than AZT. […] This intriguing profile of conjugate (4) prompted further evaluations of its growth inhibition in comparison to (5) and (6).
(§4) The anti-HIV assay was carried out with T4 lymphocytes (CEM-SS cell line) through the following standard procedure. Agent is dissolved in dimethyl sulfoxide and diluted 1:100 in cell culture medium before preparing serial half-log 10 dilutions. T4 lymphocytes are added and after a brief interval HIV-1 is added, resulting in a 1:200 final dilution of the compound. Uninfected cells with the compound serve as a toxicity control, and infected and uninfected cells without the compound serve basic controls. Cultures are incubated at 37° C. in a 5% carbon dioxide atmosphere for 6 days. The tetrazolium salt, XTT, is added to all wells, and the cultures are incubated to allow formazan color development. Individual wells are analyzed spectrophotometrically to quantitate formazan production, and in addition are viewed microscopically for detection of viable cells and confirmation of protective activity.
(§5) Drug-treated virus-infected cells are compared with drug-treated non-infected cells and with other appropriate controls (untreated infected and untreated non-infected cells, drug-containing wells without cells, etc.) on the same plate. Data are reviewed in comparison with other tests done at the same time and a determination concerning activity is made (Table 1).

[3] = system: T4 lymphocytes (CEM-SS cell line); experiment: Cytotoxicity in uninfected CEM-SS cells (toxicity control of anti-HIV assay); type: cell-based
Source text: as §3, §4, §5

[4] = system: H9/ddC cells; experiment: Growth inhibition assay, ddC resistant H9 cells; type: cell-based, human; conditions: 10 μg/ml
Source text: as §1, §2

[5] = system: HL60; experiment: Growth inhibition assay, HL60; type: cell-based, human; conditions: 10 μg/ml; HL60 promyelocytic leukemic, parental
Source text: as §1, §2

[6] = system: HL60/araC; experiment: Growth inhibition assay, HL60/araC; type: cell-based, human; conditions: 10 μg/ml, araC resistant
Source text: as §1, §2

[7] = system: H29/FU; experiment: Growth inhibition assay, H29/FU; type: cell-based, human; conditions: 10 μg/ml, FU resistant
Source text: as §1, §2

[8] = system: MCF7; experiment: Growth inhibition assay, MCF7; type: cell-based, human; conditions: 10 μg/ml; MCF7 breast carcinoma
Source text: as §1, §2

[9] = system: H9 cells; experiment: Apoptosis assay, Annexin V-FITC and propidium iodide staining, flow cytometry; type: cell-based, human; conditions: 10 μg/ml, 48 hrs; FIG. 4
Method: In the experiments, fractions of cells in various stages of apoptotic death were assessed according to standard assays [see, e.g., http://www.blackwell-synergy.com/links/doi/10.1046/j.1365-2184.2003.00283.x/abs/; http://64.177.90.157/pfpc/Fluoride_Machalinski—2003.pdf and http://jpet.aspetjournals.org/cgi/content/full/310/1/126 by simultaneous Annexin V and propidium iodide staining using flow cytometry.
Apoptosis experiments were carried out by treating H9 Cells […] with compound 4 (10 μg/ml), AZT (10 μg/ml) or cholenic acid (10 μg/ml) for 48 hrs. Cells were collected by centrifugation, washed with growth medium, and stained with Annexin V-FITC and propidium iodide (apoptosis dilution kit; Sigma), according to the manufacturer's protocol, and the fluorescence was analyzed via flow cytometry.

[10] = Cytotoxicity in uninfected CEM-SS cells (toxicity control of anti-HIV assay); type: cell-based; conditions: human, uninfected CEM-SS cells (T4 lymphocytes); CEM-SS cell line, uninfected; average of two repeat experiments; read-out: IC50 (50% inhibitory concentration for cell growth), cytotoxicity
Source text: as §3, §4, §5

[11] = H-9 cells, derived from dose-response curves, read-out: IC50 (drug concentration needed to inhibit 50% of the cell growth), anti-growth activity on H-9 cells
[12] = FIG. 1, 72 hrs incubation, read-out: IC50, cell growth inhibitory activity against human lymphoblasts (H9 cells)

In the case of “3′-Azido-3′-deoxythymidine-5′-[3β-acetyloxy-22,23-bisnor-5-cholenate] [compound 4]”, the “cytotoxicity after 24 hrs drug exposure” value ([1]; 5 μg/ml, 24 hrs exposure, FIG. 3) is reported as “Substantially more cytotoxicity”, the “cytotoxicity after 72 hrs drug exposure” value ([1]; 5 μg/ml, 72 hrs exposure, FIG. 3) is reported as “only gave a plateau” and the “cell growth inhibition after 4 hrs drug exposure” value ([1]; 1 or 5 μg/ml, 4 hrs exposure, FIG. 3) is reported as “did not produce any inhibition”. For the same molecule, the “cell growth inhibition after 8 hrs drug exposure” value ([1]; 1 or 5 μg/ml, 8 hrs incubation, FIG. 3) was 20-25%, the “IC50, cell growth inhibitory activity against human lymphoblasts (H9 cells)” value ([1]; FIG. 1, 72 hrs incubation) was about 2.5 µg/mL and the “Inhibition of growth of H9 cells (in words)” value ([1]; FIG. 2, 5 μg/ml for (4)) was “prevented growth of H9 cells almost completely”. For the same molecule, the “EC50 (50% effective concentration against HIV cytopathic effects)” value ([2]; CEM-SS cell line, average of two repeat experiments) was “inactive”, the “Anti-HIV activity (in words)” value [2] was “no anti-HIV activity” and the IC50 ([3]; CEM-SS cell line, uninfected, average of two repeat experiments, read-out: IC50 (50% inhibitory concentration for cell growth), cytotoxicity) was 4700 nM. For the same molecule, the “Cytotoxicity (in words)” value ([3]; CEM-SS cells, conjugate only) was “high cytotoxicity”, the growth inhibition [4] was 85-100% and the growth inhibition [5] was 85-100%. The growth inhibition [6] was 85-100%, the growth inhibition [7] was 85-100% and the growth inhibition [8] was 85-100%. For the same molecule, the “cells induced to apoptosis” value [9] was about 90%.

With `Cc1cn(C2C[C@H](N=[N+]=[N-])C(COC(=O)CCC(C)C3CCC4C5CCC6CCCCC6(C)C5CCC34C)O2)c(=O)[nH]c1=O` (stereo partly shown) [A, 5-Cholanic acid, 5′-(3′-azido-3′-deoxythymidinyl) ester] the IC50 [1, 11] was 30 µg/mL (≈ 49.2 µM).

In the case of `Cc1cn(C2C[C@H](N=[N+]=[N-])C(COC(=O)CCC(C)C3CCC4C5C(=O)CC6CC(=O)CCC6(C)C5CC(=O)C34C)O2)c(=O)[nH]c1=O` (stereo partly drawn) [B, 5β-Cholanic acid-3,7,12-trione, 5′-(3′-azido-3′-deoxythymidinyl) ester], the IC50 [1, 11] is reported as 30 µg/mL (≈ 46 µM).

Work on `CC(=O)O[C@@H]1CCC2(C)C(CCC3C2CCC2(C)C(C(C)CCC(=O)OCC4OC(n5cc(C)c(=O)[nH]c5=O)C[C@@H]4N=[N+]=[N-])CCC32)C1` (stereo partly drawn) [C, 3α-Acetyloxy-5[…]-Cholanic acid, 5′-(3′-azido-3′-deoxythymidinyl) ester] yielded an IC50 [1, 11] of 4 µg/mL (≈ 5.99 µM).

Molecule `CC(=O)O[C@H]1CCC2(C)C(=CCC3C2CCC2(C)C(C(C)C(=O)OCC4C=CC(n5cc(C)c(=O)[nH]c5=O)O4)CCC32)C1` (stereo partly drawn) [D, 3β-Acetyloxy-23,24-bisnor-5-cholenic acid, 5′-(3′-deoxy-2′,3′-didehydrothymidinyl) ester] has an IC50 [1, 11] of 4 µg/mL (≈ 6.73 µM).

For `COC(OC)C(=O)[C@H]1[C@H](C(=O)OC[C@H]2O[C@@H](n3cc(C)c(=O)[nH]c3=O)C[C@@H]2N=[N+]=[N-])C[C@H]2[C@@H]3CCC4=CC(=O)C=C[C@]4(C)[C@H]3[C@@H](O)C[C@@]21C` [compound 5, 3′-Azido-3′-deoxythymidine-5′-[21,21-dimethoxy-3,20-dioxo-11β-hydroxy-1,4-pregnadiene-16α-carboxylate]], the IC50 [1, 12] was about 12 µg/mL (≈ 17.6 µM), the EC50 ([2]; Human immunodeficiency virus 1, CEM-SS) was 35 nM and the “Anti-HIV activity (in words)” value [2] was “active”.

For `CC(=O)O[C@H]1CCC2(C)C(=CCC3C2CCC2(C)C(C(C)C(=O)OCC4CCC(n5cc(C)c(=O)[nH]c5=O)O4)CCC32)C1` (stereo partly drawn) [E, 3β-Acetyloxy-23,24-bisnor-5-cholenic acid, 5′-(3′-deoxythymidinyl) ester], the IC50 [1, 11] was 3 µg/mL (≈ 5.03 µM).

With `Cc1cn(C2C[C@H](N=[N+]=[N-])C(COC(=O)[C@@H]3OC(C)(C)O[C@@]34CCC3C5CCC6=CC(=O)C=CC6(C)C5C(O)CC34C)O2)c(=O)[nH]c1=O` (stereo partly drawn) [compound 6, 3′-Azido-3′-deoxythymidine-5′-[11β-hydroxy-17,20α-isopropylidenedioxy-3-oxo-1,4-pregnadiene-21-oate]] the IC50 [1, 12] was about 10 µg/mL (≈ 15 µM), the EC50 ([2]; Human immunodeficiency virus 1, CEM-SS cell line, average of two repeat experiments) was 65 nM and the “Anti-HIV activity (in words)” value [2] was “active”. It also gave an IC50 at 6 days [10] of 12000 nM.
